From ChEMBL document CHEMBL5653631, “A Potent and Selective ULK1 Inhibitor Suppresses Autophagy and Sensitizes Cancer Cells to Nutrient Stress” (iScience, 2018)

What was measured:
[1] = molecular target: T1, Tyrosine-protein kinase ZAP-70 (Homo sapiens) (UniProt P43403); test: Inhibition of human recombinant ZAP70 at 40 nM in presence of ATP by radiometric assay relative to control
T1 sequence (whole entry): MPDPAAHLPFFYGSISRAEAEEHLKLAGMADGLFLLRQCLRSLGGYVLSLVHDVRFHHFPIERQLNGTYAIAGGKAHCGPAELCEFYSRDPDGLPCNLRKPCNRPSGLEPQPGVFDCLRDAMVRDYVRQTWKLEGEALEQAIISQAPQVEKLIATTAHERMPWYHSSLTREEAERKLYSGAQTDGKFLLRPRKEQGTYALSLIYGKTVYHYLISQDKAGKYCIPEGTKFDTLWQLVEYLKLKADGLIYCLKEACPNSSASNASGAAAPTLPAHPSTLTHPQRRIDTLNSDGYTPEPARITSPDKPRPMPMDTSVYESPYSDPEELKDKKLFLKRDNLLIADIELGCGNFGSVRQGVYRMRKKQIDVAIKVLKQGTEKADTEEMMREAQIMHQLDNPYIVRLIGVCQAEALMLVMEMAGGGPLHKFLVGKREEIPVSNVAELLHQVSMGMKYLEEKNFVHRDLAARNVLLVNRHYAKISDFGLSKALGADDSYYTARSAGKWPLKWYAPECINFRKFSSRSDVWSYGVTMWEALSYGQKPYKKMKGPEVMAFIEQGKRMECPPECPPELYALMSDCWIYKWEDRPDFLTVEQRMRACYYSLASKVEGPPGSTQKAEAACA

[2] = molecular target: Serine/threonine-protein kinase 26 (Homo sapiens) (UniProt Q9P289); test: Inhibition of human recombinant MST4 at 40 nM in presence of ATP by radiometric assay relative to control
[3] = molecular target: T2, Eukaryotic elongation factor 2 kinase (Homo sapiens) (UniProt O00418); test: Inhibition of human recombinant eEF2K at 40 nM in presence of ATP by radiometric assay relative to control
T2 sequence (whole entry): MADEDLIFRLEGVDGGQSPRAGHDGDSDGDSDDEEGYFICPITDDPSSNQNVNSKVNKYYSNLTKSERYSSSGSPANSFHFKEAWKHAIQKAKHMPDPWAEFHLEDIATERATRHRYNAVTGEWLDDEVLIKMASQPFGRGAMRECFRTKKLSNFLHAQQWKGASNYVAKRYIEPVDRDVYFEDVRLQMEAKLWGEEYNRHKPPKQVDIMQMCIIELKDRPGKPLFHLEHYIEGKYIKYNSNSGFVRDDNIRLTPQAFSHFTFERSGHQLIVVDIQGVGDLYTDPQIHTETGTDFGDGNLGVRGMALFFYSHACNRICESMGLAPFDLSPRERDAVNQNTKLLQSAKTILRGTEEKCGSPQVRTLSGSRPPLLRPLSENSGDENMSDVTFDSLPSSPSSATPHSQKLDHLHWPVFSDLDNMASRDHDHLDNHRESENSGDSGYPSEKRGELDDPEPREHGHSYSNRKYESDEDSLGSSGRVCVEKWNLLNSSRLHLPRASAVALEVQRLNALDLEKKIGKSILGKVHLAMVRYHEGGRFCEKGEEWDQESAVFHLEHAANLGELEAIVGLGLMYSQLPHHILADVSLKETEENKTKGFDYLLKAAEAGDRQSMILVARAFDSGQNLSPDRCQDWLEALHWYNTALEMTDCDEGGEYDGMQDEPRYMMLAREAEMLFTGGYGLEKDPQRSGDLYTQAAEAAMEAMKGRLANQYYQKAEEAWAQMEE

[4] = molecular target: Protein kinase C eta type (Homo sapiens) (UniProt P24723); test: Inhibition of human recombinant PKCH at 40 nM related to control ULK1
[5] = molecular target: Serine/threonine-protein kinase Nek7 (Homo sapiens) (UniProt Q8TDX7); test: Inhibition of human recombinant NEK7 at 15 nM in presence of ATP by radiometric assay relative to control
[6] = molecular target: T3, Calcium/calmodulin-dependent protein kinase type IV (Homo sapiens) (UniProt Q16566); test: Inhibition of human recombinant CaMK4 at 15 nM in presence of ATP by radiometric assay relative to control
T3 sequence (whole entry): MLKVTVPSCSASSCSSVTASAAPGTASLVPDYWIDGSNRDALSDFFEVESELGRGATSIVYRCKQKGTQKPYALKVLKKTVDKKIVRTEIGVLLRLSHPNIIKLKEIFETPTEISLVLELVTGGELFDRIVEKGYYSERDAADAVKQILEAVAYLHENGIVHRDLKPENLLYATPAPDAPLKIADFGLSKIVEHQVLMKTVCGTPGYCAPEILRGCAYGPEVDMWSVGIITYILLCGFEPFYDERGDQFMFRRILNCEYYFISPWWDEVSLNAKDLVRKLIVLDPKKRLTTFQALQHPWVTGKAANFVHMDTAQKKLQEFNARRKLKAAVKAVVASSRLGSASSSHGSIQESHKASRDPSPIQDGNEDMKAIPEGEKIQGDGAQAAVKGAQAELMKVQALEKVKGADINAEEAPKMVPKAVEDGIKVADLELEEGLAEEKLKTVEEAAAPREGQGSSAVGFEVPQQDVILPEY

[7] = molecular target: Casein kinase II subunit alpha (Homo sapiens) (UniProt P68400); test: Inhibition of human recombinant CK2a1 at 15 nM related to control ULK1
[8] = molecular target: Casein kinase II subunit alpha' (Homo sapiens) (UniProt P19784); test: Inhibition of human recombinant CK2a2 at 500 nM related to control ULK1
[9] = molecular target: Receptor tyrosine-protein kinase erbB-4 (Homo sapiens) (UniProt Q15303); test: Inhibition of human recombinant ErbB4 at 500 nM related to control ULK1
[10] = molecular target: Death-associated protein kinase 2 (Homo sapiens) (UniProt Q9UIK4); test: Inhibition of human recombinant DAPK2 at 500 nM related to control ULK1
Sequence of Death-associated protein kinase 2 (Homo sapiens) (Q9UIK4 whole entry, looked up): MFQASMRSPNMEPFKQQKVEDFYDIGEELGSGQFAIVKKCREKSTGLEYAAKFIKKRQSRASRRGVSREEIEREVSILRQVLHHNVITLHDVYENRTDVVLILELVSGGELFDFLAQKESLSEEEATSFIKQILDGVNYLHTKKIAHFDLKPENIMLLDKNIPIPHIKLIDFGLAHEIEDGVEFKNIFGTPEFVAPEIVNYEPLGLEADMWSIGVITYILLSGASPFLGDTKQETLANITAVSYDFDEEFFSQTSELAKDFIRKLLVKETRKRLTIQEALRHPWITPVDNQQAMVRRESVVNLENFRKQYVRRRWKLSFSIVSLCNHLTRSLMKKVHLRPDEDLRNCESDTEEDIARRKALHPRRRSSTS

Sequence of Serine/threonine-protein kinase 26 (Homo sapiens) (Q9P289 2-416 limits assumed): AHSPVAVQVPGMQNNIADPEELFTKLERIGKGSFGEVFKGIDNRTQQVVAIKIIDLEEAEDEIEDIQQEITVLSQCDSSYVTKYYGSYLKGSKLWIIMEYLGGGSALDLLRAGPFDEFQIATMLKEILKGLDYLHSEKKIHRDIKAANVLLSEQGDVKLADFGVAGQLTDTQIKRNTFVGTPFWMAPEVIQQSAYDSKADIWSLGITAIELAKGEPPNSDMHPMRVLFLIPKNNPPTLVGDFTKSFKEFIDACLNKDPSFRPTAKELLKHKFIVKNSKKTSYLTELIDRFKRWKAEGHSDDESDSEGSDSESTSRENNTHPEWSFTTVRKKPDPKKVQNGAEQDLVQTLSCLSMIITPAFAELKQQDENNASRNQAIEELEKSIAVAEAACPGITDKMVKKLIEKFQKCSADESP
Sequence of Casein kinase II subunit alpha' (Homo sapiens) (P19784 whole entry, looked up): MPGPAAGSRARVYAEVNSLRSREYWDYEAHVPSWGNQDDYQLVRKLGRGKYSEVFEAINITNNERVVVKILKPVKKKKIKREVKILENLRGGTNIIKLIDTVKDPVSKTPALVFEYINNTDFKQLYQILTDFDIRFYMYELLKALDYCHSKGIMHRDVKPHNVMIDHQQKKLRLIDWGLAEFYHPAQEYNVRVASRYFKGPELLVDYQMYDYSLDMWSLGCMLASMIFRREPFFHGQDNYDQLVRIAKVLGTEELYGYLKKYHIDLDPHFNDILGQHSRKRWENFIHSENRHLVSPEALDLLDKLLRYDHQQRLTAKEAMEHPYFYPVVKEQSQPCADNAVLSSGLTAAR
Sequence of Receptor tyrosine-protein kinase erbB-4 (Homo sapiens) (Q15303 whole entry): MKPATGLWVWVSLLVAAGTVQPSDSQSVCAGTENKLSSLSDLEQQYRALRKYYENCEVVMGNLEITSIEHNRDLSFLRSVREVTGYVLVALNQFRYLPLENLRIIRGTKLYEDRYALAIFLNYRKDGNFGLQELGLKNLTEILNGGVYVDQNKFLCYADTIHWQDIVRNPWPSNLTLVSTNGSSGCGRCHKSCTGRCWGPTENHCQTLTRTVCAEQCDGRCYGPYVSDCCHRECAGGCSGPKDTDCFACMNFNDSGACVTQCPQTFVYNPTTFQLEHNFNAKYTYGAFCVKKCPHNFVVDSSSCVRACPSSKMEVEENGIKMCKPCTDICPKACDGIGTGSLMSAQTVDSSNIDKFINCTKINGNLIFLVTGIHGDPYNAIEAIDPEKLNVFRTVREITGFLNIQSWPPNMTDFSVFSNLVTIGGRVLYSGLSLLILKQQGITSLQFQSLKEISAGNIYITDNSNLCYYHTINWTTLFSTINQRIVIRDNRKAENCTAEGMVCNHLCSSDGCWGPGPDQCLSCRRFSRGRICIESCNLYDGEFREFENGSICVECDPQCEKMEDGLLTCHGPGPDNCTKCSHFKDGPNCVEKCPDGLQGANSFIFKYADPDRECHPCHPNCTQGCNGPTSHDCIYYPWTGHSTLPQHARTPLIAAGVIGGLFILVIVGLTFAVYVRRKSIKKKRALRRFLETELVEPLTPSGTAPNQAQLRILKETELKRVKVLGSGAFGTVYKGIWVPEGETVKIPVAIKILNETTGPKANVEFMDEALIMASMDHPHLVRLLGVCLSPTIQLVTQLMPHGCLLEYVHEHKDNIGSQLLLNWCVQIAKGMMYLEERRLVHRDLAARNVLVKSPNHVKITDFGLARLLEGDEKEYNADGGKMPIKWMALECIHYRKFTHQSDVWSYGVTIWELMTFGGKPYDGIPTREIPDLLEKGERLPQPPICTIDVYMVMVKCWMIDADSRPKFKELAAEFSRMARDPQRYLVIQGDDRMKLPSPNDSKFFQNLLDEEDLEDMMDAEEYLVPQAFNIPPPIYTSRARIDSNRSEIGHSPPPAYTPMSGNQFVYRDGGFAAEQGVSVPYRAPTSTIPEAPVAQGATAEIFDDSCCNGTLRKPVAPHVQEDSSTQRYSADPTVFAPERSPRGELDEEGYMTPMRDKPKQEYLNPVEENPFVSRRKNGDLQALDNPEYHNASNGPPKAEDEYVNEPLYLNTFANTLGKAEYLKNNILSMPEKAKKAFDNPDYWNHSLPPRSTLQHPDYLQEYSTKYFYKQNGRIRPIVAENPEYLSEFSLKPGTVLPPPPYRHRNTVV
Sequence of Serine/threonine-protein kinase Nek7 (Homo sapiens) (Q8TDX7 whole entry, looked up): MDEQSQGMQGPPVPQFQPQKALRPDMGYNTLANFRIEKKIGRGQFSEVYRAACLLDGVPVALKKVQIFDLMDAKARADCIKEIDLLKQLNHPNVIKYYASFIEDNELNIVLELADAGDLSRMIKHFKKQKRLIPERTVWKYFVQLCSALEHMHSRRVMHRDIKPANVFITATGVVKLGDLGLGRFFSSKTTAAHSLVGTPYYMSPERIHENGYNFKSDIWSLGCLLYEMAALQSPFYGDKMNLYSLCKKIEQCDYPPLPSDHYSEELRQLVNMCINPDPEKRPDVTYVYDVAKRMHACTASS
Sequence of Protein kinase C eta type (Homo sapiens) (P24723 whole entry): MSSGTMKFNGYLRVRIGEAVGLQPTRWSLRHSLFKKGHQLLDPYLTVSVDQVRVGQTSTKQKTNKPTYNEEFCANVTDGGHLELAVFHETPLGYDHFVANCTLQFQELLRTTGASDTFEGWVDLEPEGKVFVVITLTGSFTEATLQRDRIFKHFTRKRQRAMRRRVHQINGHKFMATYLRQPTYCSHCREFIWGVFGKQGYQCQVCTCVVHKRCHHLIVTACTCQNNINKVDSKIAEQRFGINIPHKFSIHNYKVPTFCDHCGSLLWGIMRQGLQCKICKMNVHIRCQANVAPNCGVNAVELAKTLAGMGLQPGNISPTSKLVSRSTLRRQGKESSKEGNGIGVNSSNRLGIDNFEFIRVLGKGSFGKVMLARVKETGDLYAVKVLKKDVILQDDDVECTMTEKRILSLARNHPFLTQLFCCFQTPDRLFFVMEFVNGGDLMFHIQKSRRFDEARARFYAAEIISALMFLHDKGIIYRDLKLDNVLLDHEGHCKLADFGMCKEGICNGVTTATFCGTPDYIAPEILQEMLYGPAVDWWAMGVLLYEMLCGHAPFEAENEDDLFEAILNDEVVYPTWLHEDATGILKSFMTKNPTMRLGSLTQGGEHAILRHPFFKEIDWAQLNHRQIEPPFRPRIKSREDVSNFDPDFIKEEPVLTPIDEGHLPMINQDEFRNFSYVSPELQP
Sequence of Casein kinase II subunit alpha (Homo sapiens) (P68400 whole entry, looked up): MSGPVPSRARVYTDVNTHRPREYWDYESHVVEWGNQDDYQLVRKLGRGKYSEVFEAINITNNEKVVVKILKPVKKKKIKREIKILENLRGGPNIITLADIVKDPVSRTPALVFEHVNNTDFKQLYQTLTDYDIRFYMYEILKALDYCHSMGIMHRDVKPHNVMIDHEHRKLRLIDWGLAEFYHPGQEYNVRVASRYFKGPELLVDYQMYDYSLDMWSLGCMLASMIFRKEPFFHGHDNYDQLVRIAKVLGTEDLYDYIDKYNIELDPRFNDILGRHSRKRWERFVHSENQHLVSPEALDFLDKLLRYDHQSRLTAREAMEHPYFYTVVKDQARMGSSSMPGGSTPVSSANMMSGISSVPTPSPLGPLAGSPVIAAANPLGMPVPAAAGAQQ

Compound: O=C(N[C@@H](C1CC1)C(F)(F)F)c1cc(-c2cnn3cc(-c4ccc(F)cc4)cnc23)cs1
- inhibition [1]: 0%
- inhibition [2]: 0%
- inhibition [3]: 7%
- fold change (FC) [4]: 0

Compound: CC(C)[C@H](NC(=O)c1cc(-c2cnn3cc(-c4ccc(OCCN5CCCCC5)cc4)cnc23)cs1)C(F)(F)F
- inhibition [5]: 0%
- inhibition [6]: 0%
- fold change (FC) [7]: 0

Compound: CNC(=O)c1ccccc1Oc1nc(Nc2cc(OC)c(OC)c(OC)c2)ncc1Br
- fold change (FC) [8]: 0.07
- fold change (FC) [9]: 0
- fold change (FC) [10]: 0
